Laboratory results from publication PMC7646944 (2020).

Legend:
[1] = tested on: SCA2.1–40 (DNA, aptamer) CTTACGACCTTAAGTGGGGTTCGGGTGGAGTTTATGGGGT; assay: isothermal titration calorimetry
[2] = tested on: SCA2.1–34 (DNA, aptamer) ACCTTAAGTGGGGTTCGGGTGGAGTTTATGGGGT; assay: isothermal titration calorimetry

KD [1] [µM] | KD [2] [µM] | SMILES
292 ± 14 | 96 ± 4.0 | CCCC(C(=O)c1ccc2c(c1)OCO2)N1CCCC1 (stereo not drawn)
0.65 ± 0.03 | – | CCC[C@H](C(=O)c1ccc2c(c1)OCO2)N1CCCC1
